Measured values: paper PMC6421522, “Designing Dual Inhibitors of Anaplastic Lymphoma Kinase (ALK) and Bromodomain-4 (BRD4) by Tuning Kinase Selectivity” (Journal of Medicinal Chemistry, 2019)

Legend:
PAMPA permeability assay = assay type: in vitro ADME; settings: pH 7.4
Text: Table 3 Physicochemical Properties of 16k | column: result

ROCK2 = molecular target: T1, ROCK2 (Homo sapiens, UniProt O75116); assay: KINOMEscan scanEDGE; assay type: binding; settings: read-out: % Control (1µM)
T1 construct: purchased DiscoveRx KINOMEscan (scanEDGE); Thermo Fisher SelectScreen (Z'-LYTE) for PLK-1
Procedure: (§1) Compound X was assayed at 1 μM in the DiscoveRx KINOMEscan (scanEDGE) assay platform. The results for single-concentration binding interactions are reported as “%Ctrl” (DMSO = 100%Ctrl), where lower numbers indicate stronger hits.

PCTK1 = molecular target: T2, PCTK1 (Homo sapiens, UniProt Q00536); assay: KINOMEscan scanEDGE; assay type: binding; settings: read-out: % Control (1µM)
T2 construct: purchased DiscoveRx KINOMEscan (scanEDGE); Thermo Fisher SelectScreen (Z'-LYTE) for PLK-1
Procedure: as §1

IGF1R = molecular target: T3, IGF1R (Homo sapiens, UniProt P08069); assay: KINOMEscan scanEDGE; assay type: binding; settings: read-out: % Control (1µM)
T3 construct: purchased DiscoveRx KINOMEscan (scanEDGE); Thermo Fisher SelectScreen (Z'-LYTE) for PLK-1
Procedure: as §1

PKAC-alpha = molecular target: T4, PKAC-alpha (Homo sapiens, UniProt P17612); assay: KINOMEscan scanEDGE; assay type: binding; settings: read-out: % Control (1µM)
T4 construct: purchased DiscoveRx KINOMEscan (scanEDGE); Thermo Fisher SelectScreen (Z'-LYTE) for PLK-1
Procedure: as §1

DCAMKL1 = molecular target: T5, DCAMKL1 (Homo sapiens, UniProt O15075); assay: KINOMEscan scanEDGE; assay type: binding; settings: read-out: % Control (1µM)
T5 construct: purchased DiscoveRx KINOMEscan (scanEDGE); Thermo Fisher SelectScreen (Z'-LYTE) for PLK-1
Procedure: as §1

KIT(D816V) = molecular target: T6, KIT(D816V) (Homo sapiens, UniProt P10721, D816V); assay: KINOMEscan scanEDGE; assay type: binding; settings: read-out: % Control (1µM)
T6 construct: purchased DiscoveRx KINOMEscan (scanEDGE); Thermo Fisher SelectScreen (Z'-LYTE) for PLK-1
Procedure: as §1

TAF1A(1) = molecular target: T7, TAF1A(1) (Homo sapiens, UniProt P21675); assay: Bromodomain thermal shift screening (DSF); assay type: binding; settings: Group VII
T7 construct: Bromodomain thermal shift screening data for 16k
Procedure: (§2) BRD4 thermal shift was measured in a differential scanning fluorimetry (DSF) assay. The assay was performed on a Stratagene Mx3005P system quantitative polymerase chain reaction (qPCR). The assay was performed in 96-well plates with 20 μL of protein at 2 μM in DSF-assay buffer (10 mM HEPES pH 7.5, 500 mM NaCl) to which 4 μL of Sypro orange dye and 0.4 μL of 10 μM compound in DMSO was added. The plate was sealed and centrifuged (1 min, 1000 rpm), and the qPCR machine was used to detect SYPRO fluorescence while increasing the temperature from 25 to 95 °C in 71 cycles. The sigmoidal part of the fluorescence signal was fitted using the Boltzmann equation, the points of change were defined, and the thermal shift was calculated by subtracting the protein/DMSO Tm shift from the protein/compound Tm shift.

TAF1A(2) = molecular target: T8, TAF1A(2) (Homo sapiens, UniProt P21675); assay: Bromodomain thermal shift screening (DSF); assay type: binding; settings: Group VII
T8 construct: Bromodomain thermal shift screening data for 16k
Procedure: as §2

SMARCA4A = molecular target: T9, SMARCA4A (Homo sapiens, UniProt P51532); assay: Bromodomain thermal shift screening (DSF); assay type: binding; settings: Group VIII
T9 construct: Bromodomain thermal shift screening data for 16k
Procedure: as §2

BRPF1A = molecular target: T10, BRPF1A (Homo sapiens, UniProt P55201); assay: Bromodomain thermal shift screening (DSF); assay type: binding; settings: Group IV
T10 construct: Bromodomain thermal shift screening data for 16k
Procedure: as §2

PB1A(6) = molecular target: T11, PB1A(6) (Homo sapiens, UniProt Q86U86); assay: Bromodomain thermal shift screening (DSF); assay type: binding; settings: Group VIII
T11 construct: Bromodomain thermal shift screening data for 16k
Procedure: as §2

BRD2(2) = molecular target: T12, BRD2(2) (Homo sapiens, UniProt P25440); assay: Bromodomain thermal shift screening (DSF); assay type: binding; settings: Group II (BET)
T12 construct: BRD2(2)
Procedure: as §2

BRD2(1) = molecular target: T13, BRD2(1) (Homo sapiens, UniProt P25440); assay: Bromodomain thermal shift screening (DSF); assay type: binding; settings: Group II (BET)
T13 construct: BRD2(1)
Procedure: as §2

PB1A(5) = molecular target: T14, PB1A(5) (Homo sapiens, UniProt Q86U86); assay: Bromodomain thermal shift screening (DSF); assay type: binding; settings: Group VIII
T14 construct: Bromodomain thermal shift screening data for 16k
Procedure: as §2

BRD1 = molecular target: T15, BRD1 (Homo sapiens, UniProt O95696); assay: Bromodomain thermal shift screening (DSF); assay type: binding; settings: Group IV
T15 construct: Bromodomain thermal shift screening data for 16k
Procedure: as §2

SMARCA2B = molecular target: T16, SMARCA2B (Homo sapiens, UniProt P51531); assay: Bromodomain thermal shift screening (DSF); assay type: binding; settings: Group VIII
T16 construct: Bromodomain thermal shift screening data for 16k
Procedure: as §2

BRD4(2) = molecular target: T17, BRD4(2) (Homo sapiens, UniProt O60885); assay: Bromodomain thermal shift screening (DSF); assay type: binding; settings: Group II (BET)
T17 construct: BRD4(2)
Procedure: as §2

PB1A(3) = molecular target: T18, PB1A(3) (Homo sapiens, UniProt Q86U86); assay: Bromodomain thermal shift screening (DSF); assay type: binding; settings: Group VIII
T18 construct: Bromodomain thermal shift screening data for 16k
Procedure: as §2

SMARCA2A = molecular target: T19, SMARCA2A (Homo sapiens, UniProt P51531); assay: Bromodomain thermal shift screening (DSF); assay type: binding; settings: Group VIII
T19 construct: Bromodomain thermal shift screening data for 16k
Procedure: as §2

BRD3(1) = molecular target: T20, BRD3(1) (Homo sapiens, UniProt Q15059); assay: Bromodomain thermal shift screening (DSF); assay type: binding; settings: Group II (BET)
T20 construct: BRD3(1)
Procedure: as §2

WDR9 = assay: Bromodomain thermal shift screening (DSF); assay type: binding; settings: Group VII
Procedure: as §2

TAF1LA(2) = molecular target: T21, TAF1LA(2) (Homo sapiens, UniProt Q8IZX4); assay: Bromodomain thermal shift screening (DSF); assay type: binding; settings: Group VII
T21 construct: Bromodomain thermal shift screening data for 16k
Procedure: as §2

SP100 = molecular target: T22, SP100 (Homo sapiens, UniProt P23497); assay: Bromodomain thermal shift screening (DSF); assay type: binding; settings: Group V
T22 construct: Bromodomain thermal shift screening data for 16k
Procedure: as §2

BRDT(1) = molecular target: T23, BRDT(1) (Homo sapiens, UniProt Q58F21); assay: Bromodomain thermal shift screening (DSF); assay type: binding; settings: Group II (BET)
T23 construct: Bromodomain thermal shift screening data for 16k
Procedure: as §2

TRIM33B = assay: Bromodomain thermal shift screening (DSF); assay type: binding; settings: Group V
Procedure: as §2

PCAF = molecular target: T24, PCAF (Homo sapiens, UniProt Q92831); assay: Bromodomain thermal shift screening (DSF); assay type: binding; settings: Group I
T24 construct: Bromodomain thermal shift screening data for 16k
Procedure: as §2

BRDT(2) = molecular target: T25, BRDT(2) (Homo sapiens, UniProt Q58F21); assay: Bromodomain thermal shift screening (DSF); assay type: binding; settings: Group II (BET)
T25 construct: Bromodomain thermal shift screening data for 16k
Procedure: as §2

EP300 = molecular target: T26, EP300 (Homo sapiens, UniProt Q09472); assay: Bromodomain thermal shift screening (DSF); assay type: binding; settings: Group III
T26 construct: Bromodomain thermal shift screening data for 16k
Procedure: as §2

TAF1LA(1) = molecular target: T27, TAF1LA(1) (Homo sapiens, UniProt Q8IZX4); assay: Bromodomain thermal shift screening (DSF); assay type: binding; settings: Group VII
T27 construct: Bromodomain thermal shift screening data for 16k
Procedure: as §2

PB1A(4) = molecular target: T28, PB1A(4) (Homo sapiens, UniProt Q86U86); assay: Bromodomain thermal shift screening (DSF); assay type: binding; settings: Group VIII
T28 construct: Bromodomain thermal shift screening data for 16k
Procedure: as §2

BRD3(2) = molecular target: T29, BRD3(2) (Homo sapiens, UniProt Q15059); assay: Bromodomain thermal shift screening (DSF); assay type: binding; settings: Group II (BET)
T29 construct: BRD3(2)
Procedure: as §2

PB1A(1) = molecular target: T30, PB1A(1) (Homo sapiens, UniProt Q86U86); assay: Bromodomain thermal shift screening (DSF); assay type: binding; settings: Group VIII
T30 construct: Bromodomain thermal shift screening data for 16k
Procedure: as §2

T1 sequence (O75116 whole entry): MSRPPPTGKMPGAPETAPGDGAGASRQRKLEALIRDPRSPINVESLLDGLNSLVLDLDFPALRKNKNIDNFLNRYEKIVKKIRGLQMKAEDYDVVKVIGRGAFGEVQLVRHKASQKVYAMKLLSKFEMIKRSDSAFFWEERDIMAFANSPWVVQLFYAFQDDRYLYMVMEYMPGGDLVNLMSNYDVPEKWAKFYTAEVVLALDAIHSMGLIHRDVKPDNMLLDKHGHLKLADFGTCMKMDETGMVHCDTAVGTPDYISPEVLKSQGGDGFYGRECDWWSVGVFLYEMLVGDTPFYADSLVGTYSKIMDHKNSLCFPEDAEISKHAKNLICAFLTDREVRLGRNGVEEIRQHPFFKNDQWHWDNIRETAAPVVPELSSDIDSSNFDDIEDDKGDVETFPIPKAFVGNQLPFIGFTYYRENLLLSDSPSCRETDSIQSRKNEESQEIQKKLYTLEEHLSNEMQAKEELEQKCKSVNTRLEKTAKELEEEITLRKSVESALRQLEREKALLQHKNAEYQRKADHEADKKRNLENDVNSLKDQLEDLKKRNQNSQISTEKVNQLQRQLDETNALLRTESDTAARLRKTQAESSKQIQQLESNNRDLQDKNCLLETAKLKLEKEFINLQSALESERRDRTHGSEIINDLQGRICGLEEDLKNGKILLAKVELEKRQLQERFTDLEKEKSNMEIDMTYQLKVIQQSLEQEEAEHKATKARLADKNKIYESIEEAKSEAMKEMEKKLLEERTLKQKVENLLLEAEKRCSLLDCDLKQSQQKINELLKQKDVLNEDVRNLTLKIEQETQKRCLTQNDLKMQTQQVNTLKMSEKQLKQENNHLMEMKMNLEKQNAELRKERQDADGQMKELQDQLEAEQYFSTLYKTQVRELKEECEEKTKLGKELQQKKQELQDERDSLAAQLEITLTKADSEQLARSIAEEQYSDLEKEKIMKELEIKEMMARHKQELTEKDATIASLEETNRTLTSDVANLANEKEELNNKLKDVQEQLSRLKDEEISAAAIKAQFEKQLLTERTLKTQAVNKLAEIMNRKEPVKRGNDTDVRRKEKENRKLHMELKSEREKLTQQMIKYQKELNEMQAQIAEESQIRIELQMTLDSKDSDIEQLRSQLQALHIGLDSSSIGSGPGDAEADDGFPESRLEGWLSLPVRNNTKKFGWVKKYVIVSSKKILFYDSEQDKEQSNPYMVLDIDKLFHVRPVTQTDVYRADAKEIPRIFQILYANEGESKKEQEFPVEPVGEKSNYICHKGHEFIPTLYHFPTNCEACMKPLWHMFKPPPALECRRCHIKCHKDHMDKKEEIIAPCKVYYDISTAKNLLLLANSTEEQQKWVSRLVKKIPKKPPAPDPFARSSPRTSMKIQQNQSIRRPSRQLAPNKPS
T8 sequence (P21675 1519-1628 limits assumed): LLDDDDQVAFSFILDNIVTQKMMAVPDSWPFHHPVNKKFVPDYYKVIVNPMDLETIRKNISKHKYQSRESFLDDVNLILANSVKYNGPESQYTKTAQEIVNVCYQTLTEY
T3 sequence (P08069 31-1367): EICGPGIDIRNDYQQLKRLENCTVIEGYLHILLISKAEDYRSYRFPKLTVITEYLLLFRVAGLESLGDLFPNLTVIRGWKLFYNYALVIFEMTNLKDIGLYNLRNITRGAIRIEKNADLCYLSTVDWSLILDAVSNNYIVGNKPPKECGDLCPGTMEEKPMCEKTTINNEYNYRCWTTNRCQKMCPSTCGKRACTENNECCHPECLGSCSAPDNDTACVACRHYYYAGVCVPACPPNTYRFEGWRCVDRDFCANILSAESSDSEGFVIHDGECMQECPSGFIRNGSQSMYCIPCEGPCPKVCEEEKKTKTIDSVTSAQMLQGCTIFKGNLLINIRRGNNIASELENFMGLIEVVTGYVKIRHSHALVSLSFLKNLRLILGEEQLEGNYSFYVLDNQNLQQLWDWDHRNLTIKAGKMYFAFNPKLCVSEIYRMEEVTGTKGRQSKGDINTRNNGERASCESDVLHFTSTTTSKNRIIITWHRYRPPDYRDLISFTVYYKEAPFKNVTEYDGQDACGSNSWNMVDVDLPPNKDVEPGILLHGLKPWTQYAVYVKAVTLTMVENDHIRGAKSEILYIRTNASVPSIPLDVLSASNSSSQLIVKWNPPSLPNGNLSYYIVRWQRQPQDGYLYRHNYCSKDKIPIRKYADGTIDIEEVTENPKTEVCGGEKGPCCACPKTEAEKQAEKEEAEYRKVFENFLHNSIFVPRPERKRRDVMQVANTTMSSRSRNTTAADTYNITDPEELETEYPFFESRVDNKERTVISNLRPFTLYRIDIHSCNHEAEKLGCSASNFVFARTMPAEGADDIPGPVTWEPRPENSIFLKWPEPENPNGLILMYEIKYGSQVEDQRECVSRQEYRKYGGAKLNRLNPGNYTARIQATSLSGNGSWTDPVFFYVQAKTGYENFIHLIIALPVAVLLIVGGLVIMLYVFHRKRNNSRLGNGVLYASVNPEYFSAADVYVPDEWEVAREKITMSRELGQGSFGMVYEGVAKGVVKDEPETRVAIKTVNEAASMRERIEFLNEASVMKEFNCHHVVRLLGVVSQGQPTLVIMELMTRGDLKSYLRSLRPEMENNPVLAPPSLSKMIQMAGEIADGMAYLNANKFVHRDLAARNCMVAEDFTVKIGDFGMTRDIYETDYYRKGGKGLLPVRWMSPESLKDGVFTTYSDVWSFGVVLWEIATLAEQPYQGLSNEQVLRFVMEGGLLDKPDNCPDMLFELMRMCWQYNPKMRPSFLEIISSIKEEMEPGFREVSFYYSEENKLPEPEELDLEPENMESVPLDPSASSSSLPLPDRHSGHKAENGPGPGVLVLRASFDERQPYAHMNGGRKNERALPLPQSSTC
T24 sequence (Q92831 723-827 limits assumed): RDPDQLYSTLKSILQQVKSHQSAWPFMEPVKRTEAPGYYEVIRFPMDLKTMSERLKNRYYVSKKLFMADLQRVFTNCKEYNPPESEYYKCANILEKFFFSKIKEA
T14 sequence (Q86U86 653-763 limits assumed): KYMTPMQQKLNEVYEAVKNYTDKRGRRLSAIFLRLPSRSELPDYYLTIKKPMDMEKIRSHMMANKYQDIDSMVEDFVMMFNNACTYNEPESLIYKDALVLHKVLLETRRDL
T30 sequence (Q86U86 41-151 limits assumed): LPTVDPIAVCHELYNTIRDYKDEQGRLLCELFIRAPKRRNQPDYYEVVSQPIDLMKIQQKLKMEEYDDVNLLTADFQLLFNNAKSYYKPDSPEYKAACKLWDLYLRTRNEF
T19 sequence (P51531 1378-1506 limits assumed): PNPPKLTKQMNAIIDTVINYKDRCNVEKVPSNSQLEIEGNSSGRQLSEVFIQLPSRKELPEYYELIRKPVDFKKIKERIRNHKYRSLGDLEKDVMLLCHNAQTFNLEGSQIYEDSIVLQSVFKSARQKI
T6 sequence (P10721 26-976 D816V): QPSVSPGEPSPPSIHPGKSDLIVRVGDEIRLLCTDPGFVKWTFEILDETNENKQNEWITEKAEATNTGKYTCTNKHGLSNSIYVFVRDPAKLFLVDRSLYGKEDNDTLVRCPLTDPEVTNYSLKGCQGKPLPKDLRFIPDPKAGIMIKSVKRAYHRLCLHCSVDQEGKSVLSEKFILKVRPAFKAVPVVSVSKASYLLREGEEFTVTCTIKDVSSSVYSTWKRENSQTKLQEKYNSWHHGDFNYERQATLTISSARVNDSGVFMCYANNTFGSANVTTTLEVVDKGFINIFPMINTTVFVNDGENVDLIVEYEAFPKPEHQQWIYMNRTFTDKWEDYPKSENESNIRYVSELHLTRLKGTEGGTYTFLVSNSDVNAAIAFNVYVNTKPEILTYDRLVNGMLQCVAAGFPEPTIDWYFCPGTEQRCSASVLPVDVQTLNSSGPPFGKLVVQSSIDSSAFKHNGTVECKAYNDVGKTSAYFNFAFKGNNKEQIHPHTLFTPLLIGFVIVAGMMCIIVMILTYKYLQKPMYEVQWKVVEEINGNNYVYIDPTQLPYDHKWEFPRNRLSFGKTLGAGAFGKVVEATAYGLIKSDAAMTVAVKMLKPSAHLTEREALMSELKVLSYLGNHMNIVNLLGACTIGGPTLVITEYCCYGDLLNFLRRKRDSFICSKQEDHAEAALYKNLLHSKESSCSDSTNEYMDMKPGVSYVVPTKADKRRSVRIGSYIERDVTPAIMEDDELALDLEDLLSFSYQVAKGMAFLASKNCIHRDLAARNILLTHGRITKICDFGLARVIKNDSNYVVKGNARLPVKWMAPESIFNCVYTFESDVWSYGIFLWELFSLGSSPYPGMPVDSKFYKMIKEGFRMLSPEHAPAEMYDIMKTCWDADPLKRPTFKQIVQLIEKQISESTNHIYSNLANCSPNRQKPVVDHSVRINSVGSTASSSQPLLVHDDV
T11 sequence (Q86U86 769-879 limits assumed): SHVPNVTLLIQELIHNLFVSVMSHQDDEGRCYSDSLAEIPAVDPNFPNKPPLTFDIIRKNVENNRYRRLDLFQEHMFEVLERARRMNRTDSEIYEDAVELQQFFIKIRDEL
T18 sequence (Q86U86 381-487 limits assumed): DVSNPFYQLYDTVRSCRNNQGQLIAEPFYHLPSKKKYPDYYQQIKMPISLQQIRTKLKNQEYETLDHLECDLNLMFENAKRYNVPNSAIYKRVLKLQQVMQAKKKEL
T2 sequence (Q00536 whole entry): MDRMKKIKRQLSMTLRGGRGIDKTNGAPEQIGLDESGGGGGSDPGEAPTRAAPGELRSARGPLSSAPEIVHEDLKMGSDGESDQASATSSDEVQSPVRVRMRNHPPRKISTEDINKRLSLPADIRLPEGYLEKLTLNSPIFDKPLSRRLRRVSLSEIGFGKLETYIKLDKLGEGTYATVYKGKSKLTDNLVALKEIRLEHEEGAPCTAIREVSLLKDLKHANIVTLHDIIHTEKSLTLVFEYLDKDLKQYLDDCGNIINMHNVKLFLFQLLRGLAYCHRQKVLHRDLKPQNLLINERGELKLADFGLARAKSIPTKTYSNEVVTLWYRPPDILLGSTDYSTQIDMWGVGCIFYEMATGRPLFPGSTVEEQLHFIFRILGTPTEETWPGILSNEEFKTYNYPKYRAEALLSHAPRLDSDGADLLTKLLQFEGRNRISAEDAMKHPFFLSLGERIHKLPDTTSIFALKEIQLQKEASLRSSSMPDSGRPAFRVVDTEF

SMILES: CCOc1cc(C2CCN(C)CC2)ccc1Nc1ncc2c(n1)N(Cc1cc(C)cs1)[C@H](CC)C(=O)N2C [16k, (R)-2-((2-Ethoxy-4-(1-methylpiperidin-4-yl)phenyl)amino)-7-ethyl-5-methyl-8-((4-methylthiophen-2-yl)methyl)-7,8-dihydropteridin-6(5H)-one]
- PAMPA pH7.4 (PAMPA permeability assay): 49 × 10^–6 cm/s
- remaining binding at 1 µM (ROCK2): 100%
- remaining binding at 1 µM (PCTK1): 95%
- remaining binding at 1 µM (IGF1R): 77%
- remaining binding at 1 µM (PKAC-alpha): 100%
- remaining binding at 1 µM (DCAMKL1): 100%
- remaining binding at 1 µM (KIT(D816V)): 100%
- Thermal Shift (TAF1A(1)): -0.45 K
- Thermal Shift (TAF1A(2)): -1.05 K
- Thermal Shift (SMARCA4A): -4.5 K
- Thermal Shift (BRPF1A): 0.8 K
- Thermal Shift (PB1A(6)): -2.75 K
- Thermal Shift (BRD2(2)): 3.95 K
- Thermal Shift (BRD2(1)): -0.95 K
- Thermal Shift (PB1A(5)): -0.7 K
- Thermal Shift (BRD1): -0.15 K
- Thermal Shift (SMARCA2B): -0.35 K
- Thermal Shift (BRD4(2)): 4.4 K
- Thermal Shift (PB1A(3)): 0.35 K
- Thermal Shift (SMARCA2A): -2.4 K
- Thermal Shift (BRD3(1)): 7.3 K
- Thermal Shift (WDR9): -4.2 K
- Thermal Shift (TAF1LA(2)): -2.9 K
- Thermal Shift (SP100): 0.05 K
- Thermal Shift (BRDT(1)): 2.7 K
- Thermal Shift (TRIM33B): -1.2 K
- Thermal Shift (PCAF): -1.65 K
- Thermal Shift (BRDT(2)): 0.6 K
- Thermal Shift (EP300): -1 K
- Thermal Shift (TAF1LA(1)): -3.4 K
- Thermal Shift (PB1A(4)): -0.1 K
- Thermal Shift (BRD3(2)): 5.9 K
- Thermal Shift (PB1A(1)): 1.95 K
